Experimental data reported in ChEMBL document CHEMBL5291721, “A preclinical secondary pharmacology resource illuminates target-adverse drug reaction associations of marketed drugs” (Nat Commun, 2023).

Tests used:
[1] = target: 5-hydroxytryptamine receptor 2A (Homo sapiens, UniProt P28223); type: functional, cell-based
Motilin receptor = Motilin receptor (Homo sapiens, UniProt O43193)
Endothelin-1 receptor = target: T1, Endothelin-1 receptor (Homo sapiens, UniProt P25101)
T1 sequence (P25101 whole entry): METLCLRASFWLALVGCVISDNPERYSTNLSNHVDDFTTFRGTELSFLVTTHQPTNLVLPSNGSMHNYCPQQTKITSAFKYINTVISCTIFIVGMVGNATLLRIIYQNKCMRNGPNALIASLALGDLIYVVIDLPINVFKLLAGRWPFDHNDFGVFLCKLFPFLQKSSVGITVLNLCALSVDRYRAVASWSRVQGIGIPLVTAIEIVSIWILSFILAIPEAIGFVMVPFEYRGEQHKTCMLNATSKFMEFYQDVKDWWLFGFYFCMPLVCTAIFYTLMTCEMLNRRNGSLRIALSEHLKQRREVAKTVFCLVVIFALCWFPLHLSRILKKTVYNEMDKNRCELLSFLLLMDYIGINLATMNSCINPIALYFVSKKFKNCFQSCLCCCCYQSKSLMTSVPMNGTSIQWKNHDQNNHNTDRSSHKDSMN

Melanocortin receptor 3 = Melanocortin receptor 3 (Homo sapiens, UniProt P41968)
Cannabinoid receptor 1 [2] = target: T2, Cannabinoid receptor 1 (Homo sapiens, UniProt P21554)
[3] = target: Voltage-gated inwardly rectifying potassium channel KCNH2 (Homo sapiens, UniProt Q12809); type: functional
[4] = target: T3, Alpha-2C adrenergic receptor (Homo sapiens, UniProt P18825); type: functional
T3 sequence (P18825 whole entry): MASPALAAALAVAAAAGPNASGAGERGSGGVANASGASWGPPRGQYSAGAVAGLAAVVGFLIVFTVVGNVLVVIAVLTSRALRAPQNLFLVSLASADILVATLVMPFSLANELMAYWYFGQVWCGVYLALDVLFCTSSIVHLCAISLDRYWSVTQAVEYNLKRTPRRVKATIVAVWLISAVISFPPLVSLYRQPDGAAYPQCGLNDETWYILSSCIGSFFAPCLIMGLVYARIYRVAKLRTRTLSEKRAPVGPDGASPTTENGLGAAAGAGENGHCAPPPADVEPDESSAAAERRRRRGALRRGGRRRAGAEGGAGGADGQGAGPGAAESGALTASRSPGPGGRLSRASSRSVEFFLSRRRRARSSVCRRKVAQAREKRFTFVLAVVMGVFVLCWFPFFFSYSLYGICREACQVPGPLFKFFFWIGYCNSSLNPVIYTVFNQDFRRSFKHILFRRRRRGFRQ

Cannabinoid receptor 1 [5] = target: T2, Cannabinoid receptor 1; type: functional, cell-based
[6] = target: T4, 5-hydroxytryptamine receptor 1A (Homo sapiens, UniProt P08908); type: functional, cell-based
T4 sequence (P08908 whole entry): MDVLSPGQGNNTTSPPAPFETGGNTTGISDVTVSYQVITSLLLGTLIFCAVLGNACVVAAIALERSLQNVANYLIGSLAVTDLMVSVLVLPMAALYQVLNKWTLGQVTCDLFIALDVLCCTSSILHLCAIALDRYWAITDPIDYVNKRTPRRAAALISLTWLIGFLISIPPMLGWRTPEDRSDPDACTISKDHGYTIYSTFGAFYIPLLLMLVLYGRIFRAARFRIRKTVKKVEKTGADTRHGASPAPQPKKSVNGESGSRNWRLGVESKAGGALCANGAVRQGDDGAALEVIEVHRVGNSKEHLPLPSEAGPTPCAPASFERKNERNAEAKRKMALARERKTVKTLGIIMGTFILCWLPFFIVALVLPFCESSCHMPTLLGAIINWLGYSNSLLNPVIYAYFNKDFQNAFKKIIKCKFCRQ

Estrogen receptor = target: T5, Estrogen receptor (Homo sapiens, UniProt P03372)
T5 sequence (P03372 whole entry): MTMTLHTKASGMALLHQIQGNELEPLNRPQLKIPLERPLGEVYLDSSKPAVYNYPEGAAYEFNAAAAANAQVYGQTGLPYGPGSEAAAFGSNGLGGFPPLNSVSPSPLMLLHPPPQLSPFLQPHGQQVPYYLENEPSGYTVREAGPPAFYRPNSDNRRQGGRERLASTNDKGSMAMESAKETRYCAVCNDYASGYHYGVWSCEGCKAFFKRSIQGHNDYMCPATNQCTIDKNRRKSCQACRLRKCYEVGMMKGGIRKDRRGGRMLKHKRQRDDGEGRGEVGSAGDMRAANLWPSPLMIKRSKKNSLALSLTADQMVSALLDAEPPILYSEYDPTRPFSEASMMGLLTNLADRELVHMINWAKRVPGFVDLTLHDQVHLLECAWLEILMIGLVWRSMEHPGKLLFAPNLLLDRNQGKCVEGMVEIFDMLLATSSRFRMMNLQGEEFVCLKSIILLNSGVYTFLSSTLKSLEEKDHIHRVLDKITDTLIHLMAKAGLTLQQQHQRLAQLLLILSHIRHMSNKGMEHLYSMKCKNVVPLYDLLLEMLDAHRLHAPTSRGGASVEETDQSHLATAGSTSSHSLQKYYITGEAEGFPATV

Cannabinoid receptor 1 [7] = target: T2, Cannabinoid receptor 1; type: functional, cell-based; remark: listed apart in the source
Melanocortin receptor 4 = Melanocortin receptor 4 (Homo sapiens, UniProt P32245)
[8] = target: T6, Alpha-1A adrenergic receptor (Homo sapiens, UniProt P35348)
T6 sequence (P35348 whole entry): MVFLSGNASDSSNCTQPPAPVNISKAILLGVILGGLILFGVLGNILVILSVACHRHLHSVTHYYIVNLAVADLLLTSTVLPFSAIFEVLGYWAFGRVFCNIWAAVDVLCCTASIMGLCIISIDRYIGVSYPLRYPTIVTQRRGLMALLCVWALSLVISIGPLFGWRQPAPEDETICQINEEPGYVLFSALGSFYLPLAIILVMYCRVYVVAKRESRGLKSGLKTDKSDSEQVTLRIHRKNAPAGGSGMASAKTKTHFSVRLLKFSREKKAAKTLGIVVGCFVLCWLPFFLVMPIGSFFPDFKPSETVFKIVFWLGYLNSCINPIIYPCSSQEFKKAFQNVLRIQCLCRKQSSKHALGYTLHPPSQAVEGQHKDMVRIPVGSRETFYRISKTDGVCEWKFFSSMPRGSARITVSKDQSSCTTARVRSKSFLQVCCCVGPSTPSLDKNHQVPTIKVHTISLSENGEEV
Also: assay procedure not described here.

Sequence of Melanocortin receptor 4 (P32245 whole entry): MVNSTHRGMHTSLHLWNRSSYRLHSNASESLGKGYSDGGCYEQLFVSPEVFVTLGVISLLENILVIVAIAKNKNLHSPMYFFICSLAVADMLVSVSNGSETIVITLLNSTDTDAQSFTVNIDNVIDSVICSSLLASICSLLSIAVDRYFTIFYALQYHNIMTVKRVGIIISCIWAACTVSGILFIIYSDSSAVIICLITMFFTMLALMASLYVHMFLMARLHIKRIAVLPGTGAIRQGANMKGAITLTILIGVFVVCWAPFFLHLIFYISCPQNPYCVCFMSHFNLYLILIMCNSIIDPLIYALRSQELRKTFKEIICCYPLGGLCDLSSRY
Sequence of Melanocortin receptor 3 (P41968 whole entry): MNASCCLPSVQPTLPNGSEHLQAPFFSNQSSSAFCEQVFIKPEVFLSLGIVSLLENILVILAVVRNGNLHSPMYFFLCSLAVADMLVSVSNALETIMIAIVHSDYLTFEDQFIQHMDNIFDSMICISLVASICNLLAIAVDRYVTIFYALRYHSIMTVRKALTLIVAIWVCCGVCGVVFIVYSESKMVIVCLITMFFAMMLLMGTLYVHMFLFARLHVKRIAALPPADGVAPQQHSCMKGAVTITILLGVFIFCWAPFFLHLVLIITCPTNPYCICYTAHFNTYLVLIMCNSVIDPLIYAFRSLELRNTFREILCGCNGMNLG
Sequence of 5-hydroxytryptamine receptor 2A (P28223 whole entry): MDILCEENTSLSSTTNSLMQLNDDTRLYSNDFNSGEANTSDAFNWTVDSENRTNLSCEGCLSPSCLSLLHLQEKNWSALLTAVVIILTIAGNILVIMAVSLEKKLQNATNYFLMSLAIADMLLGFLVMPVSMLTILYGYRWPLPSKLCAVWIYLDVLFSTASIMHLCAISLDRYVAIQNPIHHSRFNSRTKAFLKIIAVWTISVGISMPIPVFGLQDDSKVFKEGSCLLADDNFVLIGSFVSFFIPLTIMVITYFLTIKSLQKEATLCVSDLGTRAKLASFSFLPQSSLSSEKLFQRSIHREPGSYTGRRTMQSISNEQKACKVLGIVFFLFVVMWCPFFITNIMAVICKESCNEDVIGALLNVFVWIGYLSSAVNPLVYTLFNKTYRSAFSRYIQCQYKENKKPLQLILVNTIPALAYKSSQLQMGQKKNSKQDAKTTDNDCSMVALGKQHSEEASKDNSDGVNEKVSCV
Sequence of Voltage-gated inwardly rectifying potassium channel KCNH2 (Q12809 whole entry): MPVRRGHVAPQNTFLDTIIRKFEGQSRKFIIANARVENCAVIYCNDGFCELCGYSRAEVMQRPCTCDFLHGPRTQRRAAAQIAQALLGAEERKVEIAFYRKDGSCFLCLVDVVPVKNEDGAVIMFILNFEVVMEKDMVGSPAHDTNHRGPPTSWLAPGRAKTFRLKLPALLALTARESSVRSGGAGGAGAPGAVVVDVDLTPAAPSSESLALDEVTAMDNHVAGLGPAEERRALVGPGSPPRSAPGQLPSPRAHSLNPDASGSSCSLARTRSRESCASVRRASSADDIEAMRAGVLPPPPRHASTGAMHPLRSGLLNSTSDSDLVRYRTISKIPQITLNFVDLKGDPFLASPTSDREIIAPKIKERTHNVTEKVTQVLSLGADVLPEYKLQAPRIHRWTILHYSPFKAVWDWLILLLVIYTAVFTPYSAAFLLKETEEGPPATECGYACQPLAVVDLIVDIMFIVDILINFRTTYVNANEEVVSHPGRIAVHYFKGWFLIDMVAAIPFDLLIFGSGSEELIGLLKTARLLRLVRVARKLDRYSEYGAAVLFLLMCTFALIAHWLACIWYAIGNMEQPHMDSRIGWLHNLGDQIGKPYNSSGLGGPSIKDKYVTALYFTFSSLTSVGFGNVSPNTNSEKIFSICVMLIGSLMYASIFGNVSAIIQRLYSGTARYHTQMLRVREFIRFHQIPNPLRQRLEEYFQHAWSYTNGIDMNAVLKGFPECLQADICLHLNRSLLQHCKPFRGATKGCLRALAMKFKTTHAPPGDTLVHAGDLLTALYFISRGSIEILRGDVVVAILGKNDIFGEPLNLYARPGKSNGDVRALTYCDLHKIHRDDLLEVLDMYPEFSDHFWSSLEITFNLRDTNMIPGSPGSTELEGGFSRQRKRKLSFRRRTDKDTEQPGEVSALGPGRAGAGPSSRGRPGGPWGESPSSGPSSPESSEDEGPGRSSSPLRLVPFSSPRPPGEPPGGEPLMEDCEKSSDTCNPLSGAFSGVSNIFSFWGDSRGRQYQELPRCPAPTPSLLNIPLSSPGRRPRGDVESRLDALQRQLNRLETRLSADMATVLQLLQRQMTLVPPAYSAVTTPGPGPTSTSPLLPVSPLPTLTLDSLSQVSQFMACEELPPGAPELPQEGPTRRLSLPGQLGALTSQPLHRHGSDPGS
T2 sequence (P21554 whole entry): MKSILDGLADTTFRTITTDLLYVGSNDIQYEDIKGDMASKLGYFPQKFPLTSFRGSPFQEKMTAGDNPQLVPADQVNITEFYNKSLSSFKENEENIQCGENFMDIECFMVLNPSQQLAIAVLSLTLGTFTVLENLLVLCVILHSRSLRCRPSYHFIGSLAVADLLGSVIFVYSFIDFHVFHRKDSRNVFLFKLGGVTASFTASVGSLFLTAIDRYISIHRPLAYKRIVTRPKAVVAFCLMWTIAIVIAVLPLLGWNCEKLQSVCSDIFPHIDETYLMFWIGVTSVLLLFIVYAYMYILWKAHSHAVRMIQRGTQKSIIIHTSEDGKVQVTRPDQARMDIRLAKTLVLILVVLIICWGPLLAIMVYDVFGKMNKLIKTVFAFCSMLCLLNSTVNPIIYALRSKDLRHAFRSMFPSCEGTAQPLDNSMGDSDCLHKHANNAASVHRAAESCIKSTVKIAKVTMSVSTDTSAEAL
Sequence of Motilin receptor (O43193 whole entry): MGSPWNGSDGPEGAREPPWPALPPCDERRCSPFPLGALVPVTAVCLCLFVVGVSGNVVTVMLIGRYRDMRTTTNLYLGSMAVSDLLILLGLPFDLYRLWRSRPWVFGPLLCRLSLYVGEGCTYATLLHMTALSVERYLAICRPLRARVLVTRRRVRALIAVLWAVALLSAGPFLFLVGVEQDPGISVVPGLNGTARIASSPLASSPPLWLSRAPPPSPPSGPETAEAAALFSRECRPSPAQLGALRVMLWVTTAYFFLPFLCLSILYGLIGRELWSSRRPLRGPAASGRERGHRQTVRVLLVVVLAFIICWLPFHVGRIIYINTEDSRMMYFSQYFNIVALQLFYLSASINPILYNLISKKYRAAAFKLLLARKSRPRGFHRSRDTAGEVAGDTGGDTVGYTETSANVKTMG

Compound | AC50 [1] [µM] | AC50 (Motilin receptor) [µM] | AC50 (Endothelin-1 receptor) [µM] | AC50 (Melanocortin receptor 3) [µM] | AC50 (Cannabinoid receptor 1 [2]) [µM] | AC50 [3] [µM] | AC50 [4] [µM] | AC50 (Cannabinoid receptor 1 [5]) [µM] | AC50 [6] [µM] | AC50 (Estrogen receptor) [µM] | AC50 (Cannabinoid receptor 1 [7]) [µM] | AC50 (Melanocortin receptor 4) [µM] | AC50 [8] [µM]
CCOC(=O)O[C@]1(C(=O)OCCl)CC[C@H]2[C@@H]3CCC4=CC(=O)C=C[C@]4(C)[C@H]3[C@@H](O)C[C@@]21C [LOTEPREDNOL ETABONATE] | > 30 | > 30 | > 30 | > 30 | > 30 | > 30 | > 30 | – | – | – | – | – | –
CCN(CC)CCNC(=O)c1cc(S(C)(=O)=O)ccc1OC [TIAPRIDE] | – | > 30 | > 30 | > 30 | – | 8.5 | > 30 | > 30 | > 30 | > 30 | > 30 | – | –
CCCCCCCCCCCCCCCCCCCCCC(=O)Nc1ccn([C@@H]2O[C@H](CO)[C@@H](O)[C@@H]2O)c(=O)n1 [ENOCITABINE] | > 30 | > 30 | > 30 | > 30 | – | > 30 | > 30 | > 30 | – | – | > 30 | – | –
OCc1cc(C(O)CNCCCCCCOCCCCc2ccccc2)ccc1O (centres undefined) [SALMETEROL] | – | > 10 | – | > 30 | > 10 | 8.1 | > 10 | > 30 | – | > 30 | > 30 | > 30 | –
CN(C(=O)c1c(O)c2ccccc2n(C)c1=O)c1ccccc1 [ROQUINIMEX] | > 30 | – | – | > 30 | – | – | > 30 | – | – | – | – | – | –
Cn1c(=O)cc(N2CCC[C@@H](N)C2)n(Cc2ccccc2C#N)c1=O [ALOGLIPTIN] | – | > 10 | > 30 | > 30 | > 10 | – | > 10 | – | – | > 30 | – | > 30 | –
O=C1CN=C(c2ccccc2)c2cc([N+](=O)[O-])ccc2N1 [NITRAZEPAM] | – | > 10 | – | > 10 | > 10 | > 30 | > 10 | – | > 10 | > 10 | – | > 10 | > 30
Nc1c2ccccc2nc2ccccc12 [AMINACRINE] | – | – | – | – | – | 12 | – | – | – | – | – | – | –
COc1cc2ncnc(Nc3ccc(F)c(Cl)c3)c2cc1NC(=O)/C=C/CN1CCCCC1 [DACOMITINIB ANHYDROUS] | > 30 | – | – | 27 | – | – | 21 | – | – | – | – | – | –
C=C1/C(=C\C=C2/CCC[C@]3(C)[C@@H]([C@H](C)/C=C/[C@@H](O)C4CC4)CC[C@@H]23)C[C@@H](O)C[C@@H]1O [CALCIPOTRIENE] | > 30 | > 30 | > 30 | > 30 | > 30 | > 30 | > 30 | – | – | > 10 | – | – | 29
C=C[C@@]1(C)CC(=O)[C@]2(O)[C@@]3(C)[C@@H](O)CCC(C)(C)[C@@H]3[C@H](O)[C@H](OC(C)=O)[C@@]2(C)O1 [COLFORSIN] | > 30 | > 30 | > 30 | > 30 | – | > 30 | > 30 | > 30 | 1.2 | > 30 | > 30 | – | –
C/C(=C\C(=O)OCCCCCCCCC(=O)O)C[C@@H]1OC[C@H](C[C@@H]2O[C@H]2[C@@H](C)[C@H](C)O)[C@@H](O)[C@H]1O [MUPIROCIN] | – | > 10 | – | > 10 | > 10 | > 30 | > 10 | – | > 10 | > 10 | – | > 10 | > 10
CC(=O)OCC(=O)[C@@]1(O)[C@H](C)C[C@H]2[C@@H]3CCC4=CC(=O)C=C[C@]4(C)[C@@]3(F)[C@@H](O)C[C@@]21C [DEXAMETHASONE ACETATE] | – | > 10 | > 30 | > 30 | – | > 30 | > 10 | > 30 | > 10 | – | 20 | > 30 | > 10
C#CCOc1ccc(N)cc1C(=O)NCCCC [PARSALMIDE] | > 30 | > 30 | > 30 | > 30 | – | > 30 | > 30 | > 30 | > 30 | > 30 | > 30 | – | –
Cn1cnc2c(F)c(Nc3ccc(Br)cc3Cl)c(C(=O)NOCCO)cc21 [SELUMETINIB] | – | – | – | > 30 | – | > 30 | > 10 | – | – | – | – | – | > 10
C[N@+]1(CCF)[C@@H]2CC[C@H]1C[C@@H](OC(=O)C(O)(c1ccccc1)c1ccccc1)C2 | > 30 | > 30 | > 30 | > 30 | – | 2.38 | > 30 | > 30 | – | > 30 | > 30 | – | –
CC(=O)SC[C@@H](C)C(=O)N1CCC[C@H]1C(=O)N[C@@H](Cc1ccccc1)C(=O)O | > 30 | > 30 | > 30 | > 30 | – | > 30 | > 30 | > 30 | – | > 30 | > 30 | – | –
O=C(O)CCCCC1CCSS1 (stereo not drawn) [LIPOIC ACID, ALPHA] | – | – | – | – | – | > 30 | – | – | – | – | – | – | –
COc1ccc2nc3cc(Cl)ccc3c(Nc3cc(CN4CCCC4)c(O)c(CN4CCCC4)c3)c2n1 [PYRONARIDINE] | > 30 | > 30 | > 30 | > 30 | – | 0.28 | 21 | > 30 | – | > 30 | > 30 | – | –
NC1CCN(c2nc3c(cc2F)c(=O)c(C(=O)O)cn3-c2ccc(F)cc2F)C1 (centres undefined) [TOSUFLOXACIN] | – | > 30 | > 30 | > 30 | – | > 30 | > 30 | > 30 | – | > 30 | > 30 | – | –
